Laboratory results: US11964943B2, “3,5-diarylidenyl-n-substituted-piperid-4-one-derived inhibitors of Stat3 pathway activity and uses thereof” (priority 2017, dated 2024)
≈ marks a conversion by molar mass, not a printed value. Entries after “also recorded” stand apart in the source; their conditions may differ. Read-outs that look alike come from different tables or passages of the source.

Legend:
[1] = system: Stat3, Stat1α, Stat5a and Stat5b; assay: Stat selectivity: immunoblotting and TransAM STAT Family ELISA; assay type: cell-based; conditions: DU145 cells, 18 h
Description: The Active Motif TransAMX Stat Family ELISA kit was utilized to study the specificity of IE-8 for Stat3, 20 μg of whole cell extract was used and Stat activity was assessed according to the manufacturer's protocol. Briefly, 30 μl of Complete Binding Buffer (provided and supplemented with 2 μl of 1M DTT and 10 μl of Herring sperm DNA per ml of Binding Buffer AM6) was added to each well used. 20 μl of sample (nuclear extract diluted in Complete Lysis Buffer) per well, were used, while Complete Lysis Buffer (provided and supplemented with 1 μl of 1 M DTT and 10 μl of Protease Inhibitor Cocktail per ml of Lysis Buffer AM1) only, was used for blanks. The plate was sealed with the provided adhesive cover and incubated for 1 hour at room temperature, with mild agitation, on a rocking platform. At the end of incubation, the wells were washed 3 times with 200 μl 1× Wash Buffer (provided). 100 μl of one of the diluted Stat antibodies (1:1000 dilution in 1× Antibody binding buffer for the Stat3, Stat1, Stat5A and Stat5B antibodies) were added to all the used wells. […] Absorbance was read on a spectrophotometer immediately thereafter, at 450 nm, with a reference wavelength of 655 nm.
TransAM® STAT Family ELIS Assay. […] 20 μg of whole cell extract was used and STAT activity was assessed according to the manufacturers protocol.

DU145 cells [2] = assay: SRB growth inhibition and combination index with cisplatin, DU145; assay type: cell-based
Description: The affected fractions were calculated from the SRB or MTT assay absorbance values and were registered to derive the respective CI values and isobolograms. A CI value of less than 1 (one) indicates synergy.
(§1) The SRB assay was used to assess cell growth inhibition by IE-8 alone and in combination with cisplatin. […] For combination studies drug treatments were sequential with IE-8 applied first followed by cisplatin for 1 h. […] Absorbance was read at 540 nm and results were normalized to untreated controls. For analysis of GC50 values and statistical significance, non-linear regression analysis with a comparison of fits was performed with the GraphPad Prism 6.0 software.
as §1, with “Drug Combination studies. Sulforhodamine B (SRB) Cell Growth Inhibition Assay. The” for “The”, “8 h” for “IE-8”

[3] = system: HCT116-oxaliplatin resistant spheroids; assay: CellTiter-Glo 3D cell viability assay, HCT116-oxaliplatin resistant spheroids; assay type: cell-based; conditions: 96 h exposure, 3D CellTiter-Glo
Description: For cell spheroid formation, HCT116-oxaliplatin resistant cells, A2780-cisplatin resistant cells, and HT1080 cells were seeded in Corning® Spheroid opaque-walled 96 well Microplates (ultra-low attachment; Nuclon™ Sphera™, Thermofisher) at densities of 2000 cells/well in 100 μl of cell solution and allowed to grow for 4 days, before any manipulation.
Spheroid cells were treated by adding 100 μl of 2-fold the desired compound concentration and incubated at 37° C. for 96 h. At the end of drug incubation, both the plates and the CellTitre-Glo® reagent (previously thawn overnight in the fridge) were equilibrated at room temperature for at least 30 min. Subsequently, 100 μl of cell solution were carefully removed from each well, without disrupting the spheroid and equal volume of CellTitre-Glo® reagent was added. Cell lysis was performed by vigorously shaking the plate for 5 min. To stabilize the luminescent signal, the plate was incubated in the dark at RT for another 30 min before luminescence was recorded on a plate reader. The cell viability of treated samples was normalised to the untreated controls.
The cytotoxicity studies in spheroids were conducted using the CellTiter-Glo® 3D Cell viability assay (Promega) following the instructions of the manufacturer.

DU145 cells [4] = assay: Wound healing (scratch) assay; assay type: cell-based; conditions: 1 μM for 18 h prior to wounding; untreated control closed by 36 h
Description: DU145 cells were seeded in 6-well cell culture plates with Dulbecco's modified Eagle's medium/high glucose containing 10% FBS. After the cells reached 100% confluence, the monolayer was scratched using a […] pipette tip and washed once with PBS, to remove non-adherent cells. […] After drug incubation and wound induction, the medium was replaced with fresh drug-free medium and cells were observed under the microscope at the denoted time points.

B16 (melanoma) cells = assay: MTT cytotoxicity assay, B16 cells
L1210 (lymphoma) cells = assay: MTT cytotoxicity assay, L1210 cells
[5] = target: Stat3 binding to hSIE DNA probe (Homo sapiens, UniProt P40763); assay: Electrophoretic mobility shift assay (EMSA); conditions: DU145 nuclear extracts
Stat3 binding to hSIE DNA probe, sequence (P40763 whole entry): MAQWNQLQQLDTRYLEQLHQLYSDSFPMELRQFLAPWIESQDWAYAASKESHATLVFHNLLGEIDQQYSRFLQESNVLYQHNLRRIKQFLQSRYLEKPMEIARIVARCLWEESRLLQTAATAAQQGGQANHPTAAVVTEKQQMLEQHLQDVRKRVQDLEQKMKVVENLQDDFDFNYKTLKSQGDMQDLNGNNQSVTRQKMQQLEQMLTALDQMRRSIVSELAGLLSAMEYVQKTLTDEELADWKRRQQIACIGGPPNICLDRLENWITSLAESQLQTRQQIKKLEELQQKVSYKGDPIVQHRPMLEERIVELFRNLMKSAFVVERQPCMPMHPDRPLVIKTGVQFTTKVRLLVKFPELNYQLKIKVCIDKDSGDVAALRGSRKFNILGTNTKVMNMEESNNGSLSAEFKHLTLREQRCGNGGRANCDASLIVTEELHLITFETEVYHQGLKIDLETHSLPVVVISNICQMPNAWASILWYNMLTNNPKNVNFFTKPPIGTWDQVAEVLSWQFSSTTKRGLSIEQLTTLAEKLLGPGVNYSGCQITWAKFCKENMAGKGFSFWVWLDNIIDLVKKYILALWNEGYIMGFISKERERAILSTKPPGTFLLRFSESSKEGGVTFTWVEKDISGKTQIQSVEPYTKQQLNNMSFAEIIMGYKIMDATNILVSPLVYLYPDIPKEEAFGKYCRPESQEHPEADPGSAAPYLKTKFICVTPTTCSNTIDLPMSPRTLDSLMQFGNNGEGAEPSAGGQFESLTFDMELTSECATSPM
Description: Binding reactions contained 0.9 μg poly(dI-dC). Competition assays were performed by adding 100× excess cold SIE oligonucleotide (lane C) and non-specific competitor (lane M: FIRE; 5′-[sequence]-3′). The DNA-protein complexes were subjected to electrophoresis and resolved on a 5% non-denaturing polyacrylamide gel (30% acrylamide/Bis solution, Bio-Rad) in 0.5% TBE buffer containing 2.5% glycerol (pH 7.8) at 4° C. for 2 h. Once dried, the radioactive signal of the gel was visualized by exposure to Fuji medical X-ray film.
Binding reactions contained 0.9 μg poly(dI-dC). Competition assays were performed by adding 100× excess cold SIE oligonucleotide (lane C) and non-specific competitor (lane M; FIRE; 5′-[sequence]-3′). The DNA-protein complexes were subjected to electrophoresis and resolved on a 5% non-denaturing polyacrylamide gel (30% acrylamide/Bis solution, Bio-Rad) in 0.5% TBE buffer containing 2.5% glycerol (pH 7.8) at 4° C. for 2 h. Once dried, the radioactive signal of the gel was visualized by exposure to Fuji medical X-ray film.

[6] = Aqueous solubility (MultiScreen Solubility Filter Plate, shake-flask based)
Description: Aqueous solubility of Compounds of the Invention was measured with a modified version of the MultiScreen Solubility Filter Plate protocol (Millipore). This assay was based on the shake-flask equilibrium method and utilizes UV-Vis spectroscopy to quantify the unknown samples. The assay was conducted at room temperature at pH 7.4. […] Compound of the Invention was dissolved in DMSO, and the final DMSO concentration was 5% (v/v). Each sample was analyzed by UV-Vis spectroscopy at 10 nm increments from 260-600 nm to determine the optimal wavelength for detection and construct standard curves. […] A 4:1 mixture of supernatant to acetonitrile was added to a 96-well acrylic plate and analyzed by UV-Vis spectroscopy.
Aqueous solubility was measured with a modified version of the MultiScreen Solubility Filter Plate protocol (Millipore). This assay is based on the shake-flask equilibrium method and utilizes UV-Vis spectroscopy to quantify the unknown samples. The assay is conducted at room temperature at pH 7.4. […] Each compound was dissolved in DMSO, and the final DMSO concentration was 5% (v/v). Each sample was analyzed by UV-Vis spectroscopy at 10 nm increments from 260-600 nm to determine the optimal wavelength for detection and construct standard curves. […] A 4:1 mixture of supernatant to acetonitrile was added to a 96-well acrylic plate and analyzed by UV-Vis spectroscopy.

Row | Molecule | selectivity for Stat3 over Stat1, Stat5a and Stat5b [1] | combination index (CI) with cisplatin (DU145 cells [2]; IE-8 18 h then cisplatin 1 h, fixed ratio 1:50) | IC50 [3] [nM] | time for which full wound closure was prevented (DU145 cells [4]) | IC50 (B16 (melanoma) cells; read-out: IC50 (μM) B16, 72 h exposure, MTT, mean of three independent experiments) [µM] | IC50 (L1210 (lymphoma) cells; read-out: IC50 (μM) L1210, 72 h exposure, MTT, mean of three independent experiments) [µM] | concentration blocking Stat3-DNA binding activity [5] [µM] | Solubility in aqueous buffer ([6]; pH 7.4, room temperature, 5% DMSO, free base) [µM] | combination index (CI) with cisplatin (DU145 cells [2]; 5 μM IE-8 1 h then cisplatin 1 h, non-fixed ratio) | IC50 (B16 (melanoma) cells; Mus musculus, B16, 72 h, read-out: IC50 (μM) B16, 72 h exposure, MTT, mean of three independent experiments) [µM] | IC50 (L1210 (lymphoma) cells; Mus musculus, L1210, 72 h, read-out: IC50 (μM) L1210, 72 h exposure, MTT, mean of three independent experiments) [µM] | solubility at 6 h ([6]; aqueous buffer with 5% DMSO, pH 7.4, aqueous with cosolvent or surfactant or cyclodextrin, kinetic from dmso stock) [µM]
1 | 3,5-Di(3,4,5-trimethoxybenzylidene)-1-phenylpiperidin-4-one [IE-8] | selective for STAT3 over STAT1 | > 1 | 8500 | up to 60 h | ~0.3 | ~0.3 | ≥ 0.8 | 200 ± 30 |  |  |  | 
2 | COc1cc(/C=C2\CN(c3ccccc3)C/C(=C\c3cc(OC)c(OC)c(OC)c3)C2=O)cc(OC)c1OC [IE-8, 3,5-Di(3,4,5-trimethoxybenzylidene)-1-phenylpiperidin-4-one] | selectively inhibits pStat3^Tyr705 without inhibiting pStat1^Tyr701 or pStat5^Tyr694; also recorded: selectively inhibit the Stat3-DNA binding activity over that of Stat1α, Stat5a and Stat5b; also recorded: selective for Stat3 over Stat1, Stat5a, and Stat5b |  | 8500 | up to 60 h |  |  | ≥ 0.8 |  | below 1 | 0.3 | 0.36 | 200 ± 30 (≈ 106 µg/mL)
